# Test system: S. epidermidis (Staphilococcus epidermidis)
# Test: MIC by conventional measurement method, S. epidermidis
# Type: cell-based
# Conditions: 106 cfu/ml, necessary time 18 hours
# Description: The drug susceptibility measurement results are obtained by employing S. epidermidis (Staphilococcus epidermidis), […] (Genus Enterococcus) as bacteria, and by determining an amount of bacteria to be 10^6 cfu/ml. And, PCG (Penicillin G), IPM (Imipenem), MINO (Minocycline), EM (Erythromycin), OFLX (Ofloxacin), ST (Sulfamethoxazole Trimethoprim), […]) are employed as drug.
row,SMILES,(a) MIC values (minimum inhibitory interfering concentration) obtained by a conventional measurement method
1,"CC[C@H]1OC(=O)[C@H](C)[C@@H](O[C@H]2C[C@@](C)(OC)[C@@H](O)[C@H](C)O2)[C@H](C)[C@@H](O[C@@H]2O[C@H](C)C[C@H](N(C)C)[C@H]2O)[C@](C)(O)C[C@@H](C)C(=O)[C@H](C)[C@@H](O)[C@]1(C)O [EM, Erythromycin]",≦0.12 g g/ml
2,"C[C@@H](O)[C@H]1C(=O)N2C(C(=O)O)=C(SCCN=CN)C[C@H]12 [IPM, Imipenem]",≦1 g g/ml
3,"CN(C)c1ccc(O)c2c1C[C@H]1C[C@H]3[C@H](N(C)C)C(O)=C(C(N)=O)C(=O)[C@@]3(O)C(O)=C1C2=O [MINO, Minocycline]",≦0.12 g g/ml
4,"CC1COc2c(N3CCN(C)CC3)c(F)cc3c(=O)c(C(=O)O)cn1c23 (centres unmarked) [OFLX, Ofloxacin]",≦1 g g/ml
5,"CN[C@H](CC(C)C)C(=O)N[C@H]1C(=O)N[C@@H](CC(N)=O)C(=O)N[C@H]2C(=O)N[C@H]3C(=O)N[C@H](C(=O)N[C@H](C(=O)O)c4cc(O)cc(O)c4-c4cc3ccc4O)[C@H](O)c3ccc(c(Cl)c3)Oc3cc2cc(c3O[C@@H]2O[C@H](CO)[C@@H](O)[C@H](O)[C@H]2O[C@H]2C[C@](C)(N)[C@H](O)[C@H](C)O2)Oc2ccc(cc2Cl)[C@H]1O [VCM, Vancomycin]",≦1 g g/ml

# Reference: patent US7081353B2, “Drug susceptibility measurement method and apparatus thereof” (Jikei University School of Medicine, priority 2000, dated 2006)
